# Assay results as given in ChEMBL document CHEMBL5050829, “Inhibitors of cytochrome P450 family 7 subfamily B member 1 (CYP7B1) for use in treating diseases” (2021).
# The source made the active and inactive calls. The calls are words filed in the database; no cut-off is given here.
# How the values were obtained:
# Mus musculus [1] = species: Mus musculus; experiment: Inhibition of Cyp7b1 in cigarette smoke extract (CSE)-stimulated mouse airways at 0.1 to 1 uM assessed as impairment of activated B-cell migration towards supernatant culture relative to control; type: tissue-based; settings: Respiratory airway, dose 0.1-1 µM
# Mus musculus [2] = experiment: Protection against cigarette smoke-induced COPD in C57BL/6 mouse exposed with cigarette smoke for 4 months assessed as reduction in iBALT formation in lungs at 80 mg/kg, ip administered 3 times per week from 2 to 4 months; type: functional, organism-based; settings: Lung
# B cell [3] = experiment: Inhibition of Cyp7b1 in cigarette smoke extract (CSE) and LPS-stimulated mouse B cells at 0.3 to 1 uM assessed as reduction in TNF-alpha mRNA expression and measured by RT-PCR analysis relative to control; type: cell-based; settings: dose 0.3-1 µM
# Mus musculus [4] = experiment: Protection against cigarette smoke-induced COPD in C57BL/6 mouse exposed with cigarette smoke for 4 months assessed as reduction in lymphocyte count in BALF at 80 mg/kg, ip administered 3 times per week from 2 to 4 months; type: functional, organism-based
# Mus musculus [5] = experiment: Protection against cigarette smoke-induced COPD in C57BL/6 mouse exposed with cigarette smoke for 4 months assessed as reduction in lung volume at 80 mg/kg, ip administered 3 times per week from 2 to 4 months; type: functional, organism-based
# B cell [6] = experiment: Inhibition of Cyp7b1 in cigarette smoke extract (CSE) and LPS-stimulated mouse B cells at 0.3 to 1 uM assessed as reduction in Ch25h mRNA expression and measured by RT-PCR analysis relative to control; type: cell-based; settings: dose 0.3-1 µM
# Mus musculus [7] = species: Mus musculus; experiment: Inhibition of Cyp7b1 in cigarette smoke extract (CSE)-stimulated mouse airways at 1 uM assessed as reduction in cyp7b1 mRNA expression relative to control; type: tissue-based; settings: Respiratory airway
# B cell [8] = experiment: Inhibition of Cyp7b1 in cigarette smoke extract (CSE) and LPS-stimulated mouse B cells at 0.3 to 1 uM assessed as reduction in cyp7b1 mRNA expression and measured by RT-PCR analysis relative to control; type: cell-based; settings: dose 0.3-1 µM
# Mus musculus [9] = experiment: Protection against cigarette smoke-induced COPD in C57BL/6 mouse exposed with cigarette smoke for 4 months assessed as reduction in macrophage count in BALF at 80 mg/kg, ip administered 3 times per week from 2 to 4 months; type: functional, organism-based
# Mus musculus [10] = experiment: Protection against cigarette smoke-induced COPD in C57BL/6 mouse exposed with cigarette smoke for 6 months assessed as reduction in lung volume at 80 mg/kg, ip administered 3 times per week from 2 to 4 months; type: functional, organism-based
# Mus musculus [11] = experiment: Protection against cigarette smoke-induced COPD in C57BL/6 mouse exposed with cigarette smoke for 6 months assessed as reduction in iBALT formation in lungs at 80 mg/kg, ip administered 3 times per week from 2 to 4 months; type: functional, organism-based; settings: Lung
# Mus musculus [12] = experiment: Protection against cigarette smoke-induced COPD in C57BL/6 mouse exposed with cigarette smoke for 6 months assessed as reduction in macrophage count in BALF at 80 mg/kg, ip administered 3 times per week from 2 to 4 months; type: functional, organism-based
# Mus musculus [13] = experiment: Protection against cigarette smoke-induced COPD in C57BL/6 mouse exposed with cigarette smoke for 4 months assessed as reduction in emphysema in lungs at 80 mg/kg, ip administered 3 times per week from 2 to 4 months; type: functional, organism-based; settings: Lung
# Mus musculus [14] = species: Mus musculus; experiment: Inhibition of Cyp7b1 in cigarette smoke extract (CSE)-stimulated mouse airways at 1 uM assessed as impairment of activated B-cell migration towards supernatant culture relative to control; type: tissue-based; settings: Respiratory airway
# Mus musculus [15] = experiment: Protection against cigarette smoke-induced COPD in C57BL/6 mouse exposed with cigarette smoke for 6 months assessed as reduction in emphysema in lungs at 80 mg/kg, ip administered 3 times per week from 2 to 4 months; type: functional, organism-based; settings: Lung
# Mus musculus [16] = species: Mus musculus; experiment: Inhibition of Cyp7b1 in cigarette smoke extract (CSE)-stimulated mouse airways at 1 uM assessed as reduction in Ch25h mRNA expression relative to control; type: tissue-based; settings: Respiratory airway
structure (smiles),measurement,setting,value
CC(C)c1nc(CN(C)C(=O)N[C@H](C(=O)N[C@@H](Cc2ccccc2)C[C@H](O)[C@H](Cc2ccccc2)NC(=O)OCc2cncs2)C(C)C)cs1,inhibition,Mus musculus [1],Active
Clc1ccccc1C(c1ccccc1)(c1ccccc1)n1ccnc1,Activity,Mus musculus [2],Active
same,inhibition,B cell [3],Active
same,Activity,Mus musculus [4],Active
same,Activity,Mus musculus [5],Active
same,inhibition,B cell [6],Active
same,inhibition,Mus musculus [7],Active
same,inhibition,B cell [8],Active
same,Activity,Mus musculus [9],Active
same,Activity,Mus musculus [10],Active
same,Activity,Mus musculus [11],Active
same,Activity,Mus musculus [12],Active
same,Activity,Mus musculus [13],Active
same,inhibition,Mus musculus [14],Active
same,Activity,Mus musculus [15],Active
same,inhibition,Mus musculus [16],inactive
Clc1ccc(COC(Cn2ccnc2)c2ccc(Cl)cc2Cl)c(Cl)c1 (stereo not drawn),inhibition,Mus musculus [14],Active
CC(C)(C(=O)c1cccnc1)c1cccnc1,inhibition,Mus musculus [14],Active
